The results in this text go back to ChEMBL document CHEMBL3137381, “MMV Box Onchocerca lienalis screening set”.

Holding throughout (format): functional
For test [1], the system named is Onchocerca lienalis. In words: MMV: Percent motility assay at a compound concentration of 1.25e-5 M. Activity score legend: 3: Active, 2: Moderately active; 1: Inactive, 0: Toxic. Conditions: at 12.5 µM.
In test [2] the test system is Onchocerca lienalis. In words: MMV: Percent motility assay at a compound concentration of 3.1e-6 M. Activity score legend: 3: Active, 2: Moderately active; 1: Inactive, 0: Toxic. Conditions: at 3.1 µM.
Test [3] deals with Onchocerca lienalis. As to the kind of experiment: MMV: Percent motility assay at a compound concentration of 1.9e-7 M. Activity score legend: 3: Active, 2: Moderately active; 1: Inactive, 0: Toxic. Particulars: at 0.19 µM.
Test [4] concerns Onchocerca lienalis. As to the kind of experiment: MMV: Percent motility assay at a compound concentration of 7.8e-7 M. Activity score legend: 3: Active, 2: Moderately active; 1: Inactive, 0: Toxic. Particulars: at 0.78 µM.

As to `O=C1c2ccccc2-c2nnc(-c3ccc(Br)cc3)cc21`, the Motility in test [1], in test [2], in test [3] and in test [4] was 100% each time.
As to `CCOC(=O)C1=C(C)N=c2sc(=Cc3cc(Cl)ccc3O)c(=O)n2C1c1ccc(OC)cc1` (centres undefined), the Motility in test [1], in test [2], in test [3] and in test [4] was 100% each time.
For `Cc1nc2ccccc2c(O)c1CC=C(Cl)Cl`, the Motility in test [1], in test [2], in test [3] and in test [4] was 100% each time.
Turning to `FC(F)(F)c1cccc(Nc2nc3ccccc3nc2Nc2cccc(C(F)(F)F)c2)c1`, the Motility in test [1], in test [2], in test [3] and in test [4] was 100% throughout.
For the molecule `CC(=O)c1ccc(NC(=O)CSc2nc(-c3ccccc3Cl)ns2)cc1`, the Motility in test [1], in test [2], in test [3] and in test [4] was 100% in each case.
For the molecule `COc1ccc(C(=O)NC(c2ccc(Cl)cc2Cl)c2cc(Cl)c3cccnc3c2O)cc1` (centres undefined), the Motility in test [1], in test [2], in test [3] and in test [4] was 100% throughout.
`O=C(NCCCN1CCC(N2CCCCC2)CC1)C1=Cc2cc(Br)ccc2OC1`: the Motility in test [1], in test [2], in test [3] and in test [4] was 100% throughout.
On to `Cc1ccnc(NC(c2cccc(OCc3ccccc3)c2)c2ccc3cccnc3c2O)c1` (centres undefined), for which the Motility in test [1], in test [2], in test [3] and in test [4] was 100% each time.
With `O=c1cc(NC2CCN(CCCc3ccccc3)CC2)c2cc(Cl)ccc2o1`, the Motility in test [1], in test [2], in test [3] and in test [4] was 100% each time.
With `Cc1ccc(OCCCCCCNCCO)c(C)c1`, the Motility in test [1], in test [2], in test [3] and in test [4] was 100% throughout.
Take `CC1CCN(Cc2c(O)ccc3cc(-c4nc5ccccc5s4)c(=O)oc23)CC1`: the Motility in test [1], in test [2], in test [3] and in test [4] was 100% in each case.
For `Cc1ccc2cc3c(N)c4c(C)ccc(C)c4nc3nc2c1`, the Motility in test [1], in test [2], in test [3] and in test [4] was 100% each time.
For the molecule `CC(C)CCNCC(O)Cn1c2ccccc2c2ccccc21.Cl` (centres undefined), the Motility in test [1], in test [2], in test [3] and in test [4] was 100% throughout.
`CCOC(=O)c1cnc2ccc(Cl)cc2c1NCCCN(C)C`: the Motility in test [1], in test [2], in test [3] and in test [4] was 100% in each case.
For the molecule `O=C(Nc1ccc(C23CC4CC(CC(c5ccccc5)(C4)C2)C3)cc1)c1cccs1`, the Motility in test [1], in test [2], in test [3] and in test [4] was 100% in each case.
Turning to `O=C1c2ccccc2C2=Nc3ccccc3SC(c3cccc(F)c3)C12` (centres undefined), the Motility in test [1], in test [2], in test [3] and in test [4] was 100% each time.
Take `Cc1ccccc1OCCSc1nc2ccc(NC(=O)c3ccccc3)cc2s1`: the Motility in test [1], in test [2], in test [3] and in test [4] was 100% in each case.
For the molecule `CCOC(=O)c1cnc2c(C)cccc2c1Nc1ccc(C(C)=O)cc1`, the Motility in test [1], in test [2], in test [3] and in test [4] was 100% in each case.
Turning to `Cc1ccc(C2CC(C(F)(F)F)n3nc(C(=O)N4CCN(C(c5ccccc5)c5ccccc5)CC4)cc3N2)cc1` (centres undefined), the Motility in test [1], in test [2], in test [3] and in test [4] was 100% in each case.
On to `Cc1ccc2nc(C)cc(Nc3cccc(C(F)(F)F)c3)c2c1.Cl`, for which the Motility in test [1], in test [2], in test [3] and in test [4] was 100% each time.
Consider `CC(C)(C)c1ccc(C(=O)Nc2c3c(nn2-c2cccc(Cl)c2)CSC3)cc1`, for which the Motility in test [1], in test [2], in test [3] and in test [4] was 100% in each case.
As to `COc1cccc(C(=O)NC(c2ccc(C)cc2)c2cc(Cl)c3cccnc3c2O)c1` (centres undefined), the Motility in test [1] amounted to 0%; in test [2], 33.33%; in test [3], 100%; in test [4], 100%.
`CCCCCCn1c(=N)n(CC(O)COc2cccc(C)c2)c2ccccc21.Cl` (centres undefined): the Motility in test [1], in test [2], in test [3] and in test [4] was 100% throughout.
Take `COc1ccc(-c2cc(=O)oc3c4c(ccc23)OCN(Cc2ccc(F)cc2)C4)cc1`: the Motility in test [1], in test [2], in test [3] and in test [4] was 100% in each case.
Take `CCOC(=O)C1(Cc2ccccc2)CCN(Cc2cccc(OC)c2O)CC1`: the Motility in test [1], in test [2], in test [3] and in test [4] was 100% in each case.
For the molecule `Oc1ccc(C(=C(Cl)Cl)c2ccc(O)cc2)cc1`, the Motility in test [1], in test [2], in test [3] and in test [4] was 100% in each case.
For `CC(C)(C)c1ccc2c(c1)CN(Cc1ccc(Cl)cc1)CO2`, the Motility in test [1], in test [2], in test [3] and in test [4] was 100% in each case.
Consider `CCCCC(O)(c1ccc(Cl)cc1)C(CN1CCOCC1)c1ccc(Cl)cc1.Cl` (centres undefined), for which the Motility in test [1], in test [2], in test [3] and in test [4] was 100% in each case.
As to `COc1ccc(OC)c(C2C3=C(CC(C)(C)CC3=O)N(c3ccc(Cl)c(Cl)c3)C3=C2C(=O)CC(C)(C)C3)c1`, the Motility in test [1], in test [2], in test [3] and in test [4] was 100% in each case.
For the molecule `Cc1cc(=O)oc2c1ccc1oc(C(=O)c3ccccc3)c(C)c12`, the Motility in test [1], in test [2], in test [3] and in test [4] was 100% throughout.
`COc1ccc2c(c1OC)C(=O)N1c3ccccc3N=C(c3ccc(C)cc3)CC21` (centres undefined): the Motility in test [1], in test [2], in test [3] and in test [4] was 100% each time.
As to `CCCCCCc1cc(O)c2c3c(c(=O)oc2c1)CCC(C)C3` (centres undefined), the Motility in test [1], in test [2], in test [3] and in test [4] was 100% in each case.
In the case of `COc1ccc(CCNC(=O)c2cc(S(=O)(=O)N3CC(C)CC(C)C3)ccc2Sc2ccc(F)cc2)cc1OC` (centres undefined), the Motility in test [1], in test [2], in test [3] and in test [4] was 100% in each case.
As for `CCOc1ccc(Nc2c3ccccc3nc3ccccc23)cc1.Cl`, the Motility in test [1], in test [2], in test [3] and in test [4] was 100% each time.
For `CC1=C(CC(=O)c2cccc([N+](=O)[O-])c2)C(=O)c2ccccc2C1=O`, the Motility in test [1], in test [2], in test [3] and in test [4] was 100% each time.
In the case of `OC1CCCCC1C1(NC(=S)Nc2ccccc2)CCCCC1` (centres undefined), the Motility in test [1], in test [2], in test [3] and in test [4] was 100% each time.
As to `OC1=C2C(=Nc3ccccc3SC2c2ccc(Br)cc2)c2ccccc21` (centres undefined), the Motility in test [1], in test [2], in test [3] and in test [4] was 100% throughout.
On to `COc1ccc(C)c2sc(N(Cc3cccnc3)C(=O)c3ccc(C#N)cc3)nc12`, for which the Motility in test [1], in test [2], in test [3] and in test [4] was 100% throughout.
On to `CCCCCn1c(=N)n(CC(O)COc2cccc(C)c2)c2ccccc21.Cl` (centres undefined), for which the Motility in test [1], in test [2], in test [3] and in test [4] was 100% in each case.
On to `CCN1CCN(c2c(C(=O)c3ccccc3)cnc3cc(OC)c(OC)cc23)CC1`, for which the Motility in test [1], in test [2], in test [3] and in test [4] was 100% throughout.
Turning to `Cc1ccc(S(=O)(=O)c2c(COC(=O)c3cccc(C)c3)c(-c3ccccc3)nn2C)cc1`, the Motility in test [1], in test [2], in test [3] and in test [4] was 100% each time.
